We go through 13 molecules from patent US8557331B2, “Antifouling method and composition using chromen-4-one derivatives” (The Hong Kong University of Science and Technology, priority 2008, dated 2013).

Converted amounts (≈) assume the structure as drawn.

Data set [1] relates to larval settlement of the barnacle Balanus amphitrite. The data set is described as follows: Bioassay for antifouling activity against larval settlement (cyprids, 24-well plate, 24 h). Here is the method: (§1) The larvae were reared in freshly filtered natural seawater (FSW, 0.45 μm, 32S salinity) and fed with Chaetoceros gracilis Schutt at 24° C. in the Coastal Marine Laboratory, the Hong Kong University of Science and Technology (HKUST). Larvae that were competent to settle (called cyprids) were stored for 2 days at 8° C. prior to being used in the bioassays. Ten μl of each test sample dissolved in dimethyl sulfoxide (DMSO) were transferred into a well in 24-well polystyrene plate after the addition of 1 ml of FSW. The control wells contained 1 ml of FSW and 10 μl of DMSO. About 15 cyprids were added in each well with triplicate samples being tested.
as §1, with “freshly filtered nature seawater (FSW,” for “freshly filtered natural seawater (FSW,”, “Technology (HKUST). Cyprids (competent larvae) were stored” for “Technology (HKUST). Larvae that were competent to settle (called cyprids) were stored”, “8° C. (aged cyprids) prior to” for “8° C. prior to”

Data set [2] deals with barnacle Balanus amphitrite. The data set is described as follows: Field experiment: resin-based paint on PVC panels submerged at pier. It is filed as in vivo. The method, then:
Test compounds (genistein, Cu2O, or their mixture) were mixed with resin-based paint (Permoglaze, Akzo Nobel Decorative Coatings, Lancashire, UK) with addition of 15% of (w/w) xylene, and then sprayed on the surface of PVC panels (size: 10 cm×10 cm×0.5 cm). Genistein was incorporated into paint by 10 and 20% of the dry weight as the low and high concentrations, respectively. In the experiments of combination effects, both Cu2O and genistein at 10% of dry weight were added. The controls used was a resin based paint with addition of 15% (w/w) of xylene only. Each of the tested paints was mixed for more than 8 h before being spread onto panels. The thickness of each paint film was between 100 and 150 μm. The painted panels were air-dried completely prior to being tied to PVC frames and deployed vertically at a depth of 1-1.5 m at the pier of HKUST from March to June in 2007. The numbers of adult barnacle B. amphitrite on the surface were counted and the density on each panel was calculated after their submergences. Four replicates were tested for each sample.

Data set [3] is described as follows: Hydrolysis experiment of genistein (ASTM E895-89, HPLC). In kind it is physicochemical. The conditions noted are these: 50° C. in dark, a week. The method, then: The experiments were carried out according to the method described in ASTM (1993). Buffer solutions consisting of 20 mM of sodium acetate were prepared with adjusted pH level at 5, 7, and 9. FSW was the same as those used in bioassays. Artificial seawater (ASW) was prepared as van't Hoff formula (460 mM NaCl, 10.1 mM KCl, 9.2 mM CaCl2, 35.9 mM MgCl2, 17.5 mM MgSO4, 10 mM Tris-HCl, and pH 8.2). Test solution (900 ml) containing 4 μg genistein was divided into nine test glass tubes (100 ml each), and then the tubes were tightly capped. Immediately after preparation of the test solutions, three tubes were loaded onto a Sep-Pak tC18 ENV column (Waters, USA), preconditioned for use by eluting it with methanol and water under reduced pressure. The column after loading the test sample was eluted with water to remove any salts in the test samples, and was then eluted with 2.5 ml of DMSO. Thus, the eluate was 40 times more concentrated than the sample in the original test solution; this concentrated solution was subjected to HPLC analysis. The HPLC system (600, Waters, USA) was equipped with a photodiode array detector (996, Waters, USA) installed in tandem after outlet of the column (Phenomenex Luna 5λ C18 100A, 250×4.60 mm, 5 micron). The solvents used were (A) 5% acetonitrile and (B) 95% acetonitrile at the isocratic flow rates of (A) 0.53 ml min^−1 and (B) 0.47 ml min^−1 at 40° C., respectively. A volume of ten μl of elute was injected into the column using an autosampler (717plus, Waters, USA). The UV absorption at 1=260 nm was used for quantification. The analytical data were shown as the average value of triplicate analyses. The remaining six tubes were kept at 50° C. in the dark in an incubator for a period of four or seven days according to ASTM Procedure E895-89 (ASTM, 1993). After the incubations, each of three test samples was subjected to HPLC analysis, following the same concentration process as described above to determine the remaining concentration of genistein.

Data set [4] is described as follows: Bioassay for antifouling activity against larval settlement (cyprids, 24-well plate, 24 h). The following applies: Balanus amphitrite (barnacle, cyprid larvae), in vivo. The method, then: as §1
as §1, with “freshly filtered nature seawater (FSW,” for “freshly filtered natural seawater (FSW,”, “Technology (HKUST). Cyprids (competent larvae) were stored” for “Technology (HKUST). Larvae that were competent to settle (called cyprids) were stored”, “8° C. (aged cyprids) prior to” for “8° C. prior to”

Where [5] appears, read: Amphibalanus amphitrite, Table 2, larval settlement.
Setting [6] is: Amphibalanus amphitrite, Table 2, larval settlement of Balanus amphitrite, mean ± standard deviation of at least three replicates.
Setting [7] is: Table 2, LC50 used is the highest concentration causing <50% death of larvae.
[8] abbreviates: judged from LC50/EC50, standard of Avelin et al. (1993): nontoxic if higher than 10.
Where [9] appears, read: single compound at 10% of dry weight of paint, three months submergence.

With `COc1c(OC)c(O)c2c(=O)c(OC)c(-c3ccc(O)cc3)oc2c1OC` [Sample F-1, 4′,5-dihydroxy-3,6,7,8 tetramethoxy-flavone], the EC50 in data set [1] (setting [5]) was roughly 3 µg/mL (≈ 8.01 µM); in data set [1] (setting [6]) it was 3.4 ± 0.5 µg/mL (≈ 9.08 µM). In addition, in data set [1] (setting [7]), the LC50/EC50 is listed as greater than 14.7. Moreover, the “toxicity (in words)” value in data set [1] (in vivo) is listed as “almost no toxicity”.
`O=c1cc(-c2ccc(O)c(O)c2)oc2cc(O)cc(O)c12` [Sample F-10]: the figures for the EC50 in data set [1] (setting [5]) and in data set [1] (setting [6]) were roughly 3 µg/mL (≈ 10.5 µM) and 3.8 ± 0.4 µg/mL (≈ 13.3 µM), respectively. In addition, the LC50/EC50 in data set [1] (Balanus amphitrite, in vivo, 24 h) is greater than 13.2. Besides, the “toxicity (in words)” value in data set [1] (in vivo) is listed as “almost no toxicity”.
As for `O=c1cc(-c2ccc(O)cc2)oc2cc(O)cc(O)c12` [Sample F-9, 4′,5,7-trihydroxy-flavone], the EC50 was roughly 3 µg/mL (≈ 11.1 µM) in data set [1] (setting [5]) and 3.1 ± 0.3 µg/mL (≈ 11.5 µM) in data set [1] (setting [6]). The LC50/EC50 in data set [1] (setting [7]) is greater than 16.1. Also, in data set [1] (setting [8]), the “toxicity (in words)” value is “almost no toxicity”.
Consider Cu2O [reference compound], for which the “density of barnacles fouled on the test panels” value in data set [2] (setting [9]) was 0.81 ± 0.06 adults cm^−2.
Regarding `COc1ccc(-c2coc3c(OC)c(O)ccc3c2=O)cc1` [Sample F-2, 7-hydroxy-8,4′-dimethoxyisoflavone], in data set [1] (setting [6]), the EC50 was found to be 13.3 ± 2.5 µg/mL (≈ 44.6 µM). The molecule further had an LC50/EC50 in data set [1] (setting [7]) greater than 7.50.
`COc1ccc(-c2oc3cc(OC)c(OC)c(O)c3c(=O)c2OC)cc1O` [Sample F-3]: the EC50 was roughly 3 µg/mL (≈ 8.01 µM) in data set [1] (setting [5]) and 3 ± 0.4 µg/mL (≈ 8.01 µM) in data set [1] (setting [6]). In addition, the LC50/EC50 in data set [1] (setting [7]) is on record as greater than 16.7. In addition, the “toxicity (in words)” value in data set [1] (in vivo) was “almost no toxicity”.
Turning to `O=c1cc(-c2ccccc2)oc2cccc(O)c12` [Sample F-17, 5-monohydroxy-flavone], the EC50 in data set [1] (setting [5]) is roughly 3 µg/mL (≈ 12.6 µM); in data set [1] (setting [6]), 2.8 ± 0.3 µg/mL (≈ 11.8 µM). For the same molecule, the LC50/EC50 in data set [1] (setting [7]) is greater than 17.9. Besides, the “toxicity (in words)” value in data set [1] (setting [8]) is reported as “almost no toxicity”.
Consider `O=c1c(O)c(-c2ccc(O)cc2)oc2cc(O)cc(O)c12` [Sample F-6, kaempferol], for which a half-maximal effect in data set [1] (setting [6]) (EC50) was put at 9.6 ± 1.4 µg/mL (≈ 33.5 µM). The same molecule returned an LC50/EC50 in data set [1] (setting [7]) greater than 5.2.
In data set [1] (setting [7]), `C[C@@H]1O[C@@H](OC[C@H]2O[C@@H](Oc3c(-c4ccc(O)c(O)c4)oc4cc(O)cc(O)c4c3=O)[C@H](O)[C@@H](O)[C@@H]2O)[C@H](O)[C@H](O)[C@H]1O` [Sample F-5, neoisorutin] had an LC50/EC50 greater than 5.0. The same molecule showed an EC50 in data set [1] (Table 2, larval settlement of Balanus amphitrite, mean ± standard deviation of at least three replicates) of 40.1 ± 3.4 µg/mL (≈ 65.7 µM).
In data set [1] (setting [6]), `COc1ccc(-c2oc3c(CC=C(C)C)c(O[C@@H]4O[C@H](CO)[C@@H](O)[C@H](O)[C@H]4O)cc(O)c3c(=O)c2O[C@@H]2O[C@@H](C)[C@H](O)[C@@H](O)[C@H]2O)cc1` [Sample F-16, icariin] registered an EC50 of 35.3 ± 4.2 µg/mL (≈ 52.2 µM). This molecule returned an LC50/EC50 in data set [1] (setting [7]) greater than 2.8.
Turning to `O=c1c(-c2ccc(O)cc2)coc2cc(O)cc(O)c12` [Sample F-12, 4′,5,7-trihydroxy-isoflavone], the genistein decomposed in data set [3] (artificial seawater (ASW)) was roughly 35%; in data set [3] (filtered natural seawater (FSW)), roughly 26%; in data set [3] (pH 5.0 buffer solution), “About 27%”; in data set [3] (pH 7.0 buffer solution), roughly 31%; in data set [3] (pH 9.0 buffer solution), roughly 37%. Further, the LC50 at 24 h in data set [4] was greater than 50 µg/mL. Besides, the EC50 in data set [1] (24 h, genistein from Streptomyces fungicidicus, larval settlement, 24 h at 24° C., method of Rittschof et al. (1994)) was found to be 3 µg/mL (≈ 11.1 µM); in data set [1] (setting [5]) it was 3 µg/mL (≈ 11.1 µM); in data set [1] (setting [6]) it was 3 ± 0.3 µg/mL (≈ 11.1 µM). For the same molecule, the “concentration at which inhibitory activity against larvae settlement was observed (as low as)” value in data set [1] (FIG. 2) is 0.5 µg/mL. Besides, the LC50/EC50 in data set [1] (setting [7]) is greater than 16.7; in data set [1] (Table 2, genistein purified from extract of Genista tinctoria), greater than 16.7; in data set [1] (genistein from Streptomyces fungicidicus), greater than 16.7. This molecule also registered a larvae settled in data set [1] (concentration of 8 μg/ml, control 90% settlement) of 10%. The “toxicity (in words)” value in data set [1] (setting [8]) is reported as “nontoxic”. For the same molecule, the “density of barnacles fouled on the test panels” value is 0.12 ± 0.031 adults cm^−2 in data set [2] (10% of dry weight of paint, one month submergence, control 0.32 ± 0.039); 0.57 ± 0.055 adults cm^−2 in data set [2] (10% of dry weight of paint, two months submergence, control 0.71 ± 0.053); 0.08 ± 0.027 adults cm^−2 in data set [2] (20% of dry weight of paint, one month submergence, control 0.32 ± 0.039); 0.13 ± 0.029 adults cm^−2 in data set [2] (20% of dry weight of paint, two months submergence, control 0.71 ± 0.053); 0.77 ± 0.042 adults cm^−2 in data set [2] (setting [9]).
`COc1ccc(-c2oc3cc(OC)cc(O)c3c(=O)c2O)cc1` [Sample F-8, 3,5-dihydroxy-7,4′-dimethoxyflavone] displayed an EC50 in data set [1] (setting [6]) of 11.8 ± 2.1 µg/mL (≈ 37.5 µM). The molecule also yielded an LC50/EC50 in data set [1] (setting [7]) greater than 4.2.
Take `COc1cc2oc(-c3ccc(O)cc3)c(OC)c(=O)c2c(O)c1OC` [Sample F-4, 4′,5,-dihydroxy-3,6,7-trimethoxy-flavone]: the EC50 in data set [1] (setting [5]) is roughly 3 µg/mL (≈ 8.71 µM); in data set [1] (setting [6]), 2.5 ± 0.3 µg/mL (≈ 7.26 µM). For the same molecule, in data set [1] (setting [7]), the LC50/EC50 is given as greater than 20.0. For the same molecule, in data set [1] (in vivo), the “toxicity (in words)” value is “almost no toxicity”.
